Source: article PMC10487436, “Towards Anticancer and Antibacterial Agents: Design and Synthesis of 1,2,3-Triazol-quinobenzothiazine Derivatives” (International Journal of Molecular Sciences, 2023)
Values after ≈ are worked out from the molar mass of the structure shown.

How the values were obtained:
[1] = tested on: Mycobacterium smegmatis ATCC 700084; test: MIC, broth dilution micro-method, MS; type: cell-based; details: Mycolicibacterium smegmatis, ATCC700084, 72 h; 3 days at 37 °C
[2] = tested on: vancomycin-resistant E. faecalis VRE 725B; test: MIC, microtitration broth method, VRE3; type: cell-based; details: Enterococcus faecalis, 24 h at 37 °C
Experimental: (§1) In vitro antibacterial activity of the synthesized compounds was evaluated against representatives of multidrug-resistant bacteria, three clinical isolates of methicillin-resistant S. aureus: clinical isolates of animal origin, MRSA 63718 (Department of Infectious Diseases and Microbiology, Faculty of Veterinary Medicine, University of Veterinary Sciences Brno, Czech Republic), carrying the mecA gene; and MRSA SA 630 and MRSA SA 3202 [52] (National Institute of Public Health, Prague, Czech Republic), both of human origin. […] Vancomycin- and methicillin-susceptible S. aureus ATCC 29213 and vancomycin-susceptible Enterococcus faecalis ATCC 29212, obtained from the American Type Culture Collection, were used as the reference and quality control strains. Three vanA gene-carrying vancomycin-resistant isolates of E. faecalis (VRE 342B, VRE 368, VRE 725B) were provided by Oravcova et al..
(§2) The minimum inhibitory concentrations (MICs) were evaluated by the microtitration broth method according to the CLSI, with some modifications. The compounds were dissolved in DMSO (Sigma, St. Louis, MO, USA) to obtain a concentration of […] and diluted in a microtitration plate in an appropriate medium, i.e., Cation Adjusted Mueller–Hinton Broth (CaMH, Oxoid, Basingstoke, UK) for staphylococci, and Brain Heart Infusion Broth (BHI, Oxoid) for enterococci, to reach the final concentration of 256–0.125 µg/mL. Microtiter plates were inoculated with test micro-organisms so that the final concentration of bacterial cells was 10^5. […] A drug-free control and a sterility control were included. The plates were incubated for 24 h at 37 °C for staphylococci and enterococci. […] The experiments were repeated three times.

[3] = tested on: A549 (human lung carcinoma); test: WST-1 proliferation assay, A549; type: cell-based
Experimental: (§3) Compounds were evaluated for their antiproliferative activity using three cultured cell lines: A549 (human lung carcinoma, ATCC, Manassas, VA, USA), SNB-19 (human glioblastoma, DSMZ, German Collection of Microorganisms and Cell Cultures), T-47D (human breast cancer, ATCC, Manassas, VA, USA), and NHDF (normal human dermal fibroblasts, ATCC, Manassas, VA, USA). The cultured cells were kept at 37 °C and 5% CO2. The cells were seeded (1 × 10^4 cells/well/100 μL DMEM supplemented with 10% FCS, streptomycin, and penicillin) using 96-well plates (corning). Cells were counted in a hemocytometer (Burker chamber) using a phase contrast Olympus IX50 microscope equipped with a Sony SSC-DC58 AP camera and an Olympus DP10 digital camera.
(§4) The antiproliferative effect of the compounds exerted on cancer and normal cells was determined using the Cell Proliferation Reagent WST-1 assay (Roche Molecular Biochemicals, Mannheim, Germany). This assay is based on a colorimetric method using the enzymatic ability of viable cells to cause the bright, red-colored stable tetrazolium monosodium salt [2-(4-iodophenyl)-3-(4-nitrophenyl)-5-(2,4-disulfophenyl)–2H-tetra-zolium] to transform into the dark, red-colored soluble formazan. […] An increase in the amount of formazan dye formed correlated with the number of metabolically active cells in the culture. The formazan dye produced by metabolically active cells was quantified by absorbance readings at appropriate wavelengths. The examined cells were exposed to the tested compounds (1 mM DMSO stock) for 72 h at various concentrations (0.1–100 μM). The control was performed in order to eliminate the DMSO effect at the concentration used. Cell cultures were incubated with WST-1 (10 μL) for 1 h. The absorbance of the samples was measured against a background control at 450 nm using a microplate reader with a reference wavelength at 600 nm. The obtained results are expressed as the means of at least two independent experiments performed in triplicate. The antiproliferative activity of the tested compounds was compared to that of cisplatinum. The values of IC50 (a concentration of a compound that is required for 50% inhibition) were calculated from the dose-response relationship with respect to control. The results were reported as the mean (±std) of three separate experiments.

[4] = tested on: T-47D (human breast cancer); test: WST-1 proliferation assay, T47D; type: cell-based; details: 72 h exposure
Experimental: as §3, §4

[5] = tested on: vancomycin-resistant E. faecalis VRE 368; test: MIC, microtitration broth method, VRE2; type: cell-based; details: Enterococcus faecalis, 24 h at 37 °C
Experimental: as §1, §2

[6] = tested on: Staphylococcus aureus ATCC 29213; test: MIC, microtitration broth method, SA; type: cell-based; details: ATCC29213, 24 h at 37 °C
Experimental: as §1, §2

[7] = tested on: methicillin-resistant S. aureus 63718; test: MIC, microtitration broth method, MRSA3; type: cell-based; details: Staphylococcus aureus; 24 h at 37 °C
Experimental: as §1, §2

[8] = tested on: methicillin-resistant S. aureus SA 630; test: MIC, microtitration broth method, MRSA2; type: cell-based; details: Staphylococcus aureus; 24 h at 37 °C
Experimental: as §1, §2

[9] = tested on: Enterococcus faecalis ATCC 29213; test: MIC, microtitration broth method, EF; type: cell-based; details: ATCC29213, 24 h at 37 °C
[10] = tested on: methicillin-resistant S. aureus SA 3202; test: MIC, microtitration broth method, MRSA1; type: cell-based; details: Staphylococcus aureus; 24 h at 37 °C
Experimental: as §1, §2

[11] = tested on: Mycobacterium marinum CAMP 5644; test: MBC, agar aliquot subculture method, MM; type: cell-based; details: CAMP5644
Experimental: (§5) For the above-mentioned strains/isolates, the agar aliquot subculture method was used as a test for bactericidal agents. After the MIC value determination, the inoculum was transferred to CaMH (Oxoid) for staphylococci, BHI (Oxoid) for enterococci, and Middlebrook 7H9 (Difco) for mycobacteria medium using a multipoint inoculator. As indicated above, the plates were incubated on a thermostat at 37 °C for the appropriate time for each micro-organism. The lowest concentration of test compound at which ≤5 colonies were obtained was then evaluated as MBC, corresponding to a 99.9% decrease in CFU relative to the original inoculum.

[12] = tested on: NHDF (normal human dermal fibroblasts); test: WST-1 proliferation assay, NHDF; type: cell-based; details: normal cells, 72 h exposure
Experimental: as §3, §4

[13] = tested on: Mycobacterium smegmatis ATCC 700084; test: MBC, agar aliquot subculture method, MS; type: cell-based; details: Mycolicibacterium smegmatis, ATCC700084
Experimental: as §5

[14] = tested on: vancomycin-resistant E. faecalis VRE 342B; test: MIC, microtitration broth method, VRE1; type: cell-based; details: Enterococcus faecalis, 24 h at 37 °C
Experimental: as §1, §2

[15] = tested on: Mycobacterium marinum CAMP 5644; test: MIC, broth dilution micro-method, MM; type: cell-based; details: CAMP5644, 504 h, 21 days at 28 °C
[16] = tested on: SNB-19 (human glioblastoma); test: WST-1 proliferation assay, SNB-19; type: cell-based
Experimental: as §3, §4

[17] = tested on: Mycobacterium smegmatis ATCC 700084; details: MTT, 3 days
[18] = Homo sapiens, A549, 72 h exposure
[19] = Homo sapiens, SNB-19, 72 h exposure

SMILES: C=CCn1cc(COc2cccc3c2Nc2c(c[n+](C)c4ccccc24)S3)nn1 [2c, 5-Methyl-11-(1-allyl-1H-1,2,3-triazol-4-yl)methoxy-12H-quino [3,4-b][1,4]benzothiazinium chloride]
- MIC [1]: 65.5 µM
- MIC [2]: 524 µM
- IC50 [3, 18]: 5.7 ± 0.9 µM
- IC50 ([4]; Homo sapiens, T47D): 7.6 ± 0.4 µM
- MIC [5]: > 524 µM
- MIC [6]: 524 µM
- MIC [7]: 524 µM
- MIC [8]: 524 µM
- MIC [9]: > 524 µM
- MIC [10]: 524 µM
- MBC [11]: 131 µM
- IC50 ([12]; Homo sapiens, NHDF): > 100 µM
- MBC [13]: 65.5 µM
- MIC [14]: > 524 µM
- MIC [15]: 131 µM
- IC50 [16, 19]: 4.1 ± 0.5 µM

SMILES: C[n+]1cc2c(c3ccccc31)Nc1c(OCc3cn(Cc4ccccc4)nn3)cccc1S2 [2f, 5-Methyl-11-(1-benzyl-1H-1,2,3-triazol-4-yl)methoxy-12H-quino [3,4-b][1,4]benzothiazinium chloride]
- MIC [1]: 65.5 µM
- MIC [2]: > 524 µM
- IC50 [3, 18]: 11.5 ± 0.6 µM
- IC50 ([4]; Homo sapiens, T47D): 20.5 ± 1.4 µM
- MIC [5]: > 524 µM
- MIC [6]: > 524 µM
- MIC [7]: 524 µM
- MIC [8]: > 524 µM
- MIC [9]: > 524 µM
- MIC [10]: > 524 µM
- MBC [11]: 65.5 µM
- IC50 ([12]; Homo sapiens, NHDF): 30.5 ± 2.1 µM
- MBC [13]: 65.5 µM
- MIC [14]: > 524 µM
- MIC [15]: 65.5 µM
- IC50 [16, 19]: 8.5 ± 0.5 µM

SMILES: C[n+]1cc2c(c3ccccc31)Nc1c(OCc3cn(Cc4ccc([N+](=O)[O-])cc4)nn3)cccc1S2 [2i, 5-Methyl-11-[1-(4-nitrobenzyl)-1H-1,2,3-triazol-4-yl]methoxy-12H-quino [3,4-b][1,4]benzothiazinium chloride]
- MIC [1]: 65.5 µM
- MIC [2]: 524 µM
- IC50 [3, 18]: 9 ± 0.4 µM
- IC50 ([4]; Homo sapiens, T47D): 2.8 ± 0.2 µM
- MIC [5]: > 524 µM
- MIC [6]: 524 µM
- MIC [7]: 524 µM
- MIC [8]: 524 µM
- MIC [9]: > 524 µM
- MIC [10]: 524 µM
- MBC [11]: 131 µM
- IC50 ([12]; Homo sapiens, NHDF): > 100 µM
- MBC [13]: 65.5 µM
- MIC [14]: > 524 µM
- MIC [15]: 131 µM
- IC50 [16, 19]: 4.9 ± 0.3 µM

SMILES: C=CCn1cc(COc2ccccc2N)nn1 [5a, 1-allyl-4-(2-aminophenoxy)methyl-1H-1,2,3-triazole]
- IC50 [3, 18]: > 100 µM
- IC50 ([4]; Homo sapiens, T47D): > 100 µM
- IC50 ([12]; Homo sapiens, NHDF): > 100 µM
- IC50 [16, 19]: > 100 µM

SMILES: Nc1ccc(OCc2cn(Cc3ccccc3)nn2)cc1 [5f, 1-benzyl-4-(4-aminophenoxy)methyl-1H-1,2,3-triazole]
- IC50 [3, 18]: > 100 µM
- IC50 ([4]; Homo sapiens, T47D): > 100 µM
- IC50 ([12]; Homo sapiens, NHDF): > 100 µM
- IC50 [16, 19]: > 100 µM

SMILES: Nc1cccc(OCc2cn(Cc3ccc([N+](=O)[O-])cc3)nn2)c1 [5h, 1-(4-nitrobenzyl)-4-(3-aminophenoxy)methyl-1H-1,2,3-triazole]
- IC50 [3, 18]: > 100 µM
- IC50 ([4]; Homo sapiens, T47D): > 100 µM
- IC50 ([12]; Homo sapiens, NHDF): > 100 µM
- IC50 [16, 19]: > 100 µM

SMILES: Nc1ccc(OCc2cn(Cc3ccc([N+](=O)[O-])cc3)nn2)cc1 [5i, 1-(4-nitrobenzyl)-4-(4-aminophenoxy)methyl-1H-1,2,3-triazole]
- IC50 [3, 18]: > 100 µM
- IC50 ([4]; Homo sapiens, T47D): > 100 µM
- IC50 ([12]; Homo sapiens, NHDF): > 100 µM
- IC50 [16, 19]: > 100 µM

SMILES: N.N.[Cl][Pt][Cl] [CIS, cisplatin, reference compound]
- IC50 ([3]; 72 h exposure): 3 ± 0.2 µM
- IC50 [4]: 9 ± 0.7 µM
- IC50 [12]: 29.9 ± 3.3 µM
- IC50 ([16]; 72 h exposure): 16.7 ± 1.3 µM

SMILES: O=C(O)c1cn(C2CC2)c2cc(N3CCNCC3)c(F)cc2c1=O [CPX, ciprofloxacin, reference compound]
- MIC [1]: 0.38 µM (≈ 0.126 µg/mL)
- MBC [11]: 0.38 µM (≈ 0.126 µg/mL)
- Conc.: lowest multiple of MBC with at least 70% inhibition of respiratory activity [17]: 32× MIC (32× MBC)
- Conc.: lowest multiple of MIC with at least 70% inhibition of respiratory activity [17]: 32× MIC (32× MBC)
- MBC [13]: 0.38 µM (≈ 0.126 µg/mL)
- MIC [15]: 0.38 µM (≈ 0.126 µg/mL)

SMILES: COc1cccc2c1C(=O)c1c(O)c3c(c(O)c1C2=O)C[C@@](O)(C(=O)CO)C[C@@H]3O[C@H]1C[C@H](N)[C@H](O)[C@H](C)O1 [DOX, doxorubicin, reference compound]
- IC50 [3, 18]: 1.3 ± 0.1 µM
- IC50 ([4]; Homo sapiens, T47D): 0.8 ± 0.1 µM
- IC50 ([12]; Homo sapiens, NHDF): 5.5 ± 0.5 µM
- IC50 [16, 19]: 1.7 ± 0.2 µM

SMILES: CO[C@H]1/C=C/O[C@@]2(C)Oc3c(C)c(O)c4c(O)c(c(/C=N/N5CCN(C)CC5)c(O)c4c3C2=O)NC(=O)/C(C)=C\C=C\[C@H](C)[C@H](O)[C@@H](C)[C@@H](O)[C@@H](C)[C@H](OC(C)=O)[C@@H]1C [RIF, rifampicin, reference compound]
- MIC [1]: 19.4 µM (≈ 16 µg/mL)
- MIC [15]: 2.43 µM (≈ 2 µg/mL)
